Assays:
[1] = test system: beet armyworm (BAW; Spodoptera exigua: Lepidoptera); assay: 96-well microtiter plate-based high throughput (HTS) bioassay on beet armyworm (BAW HTS); type: in vivo; details: 144 h, percent mortality, 96-well HTS, 12 μg test compound on diet, BAW eggs, 6 days post-treatment, 29° C., average of six replicates, read-out: BAW HTS
Description: (§1) Bioassays on beet armyworm (BAW; Spodoptera exigua: Lepidoptera) were conducted using either a 96-well microtiter plate-based high throughput (HTS) bioassay or a 128-well diet tray assay. The HTS assay is based on a modification of Lewer et al. J. Nat. Prod. 2006, 69, 1506. BAW eggs were placed on top of artificial diet (100 μL) in each well of a 96-well microtiter plate. The diet was pretreated with test compounds (12 μg dissolved in 30 μL of DMSO-acetone-H2O mixture) layered on top of the diet using a liquid handling system and then allowed to dry for several hours. Infested plates were then covered with a layer of sterile cotton batting and the plate lid, and then held in the dark at 29° C. Mortality was recorded at 6 days post-treatment. Each plate had six replicates. The percent mortality was calculated from the average of the six replicates. In the case of the 128-well diet assay, three to five second instar BAW larvae were placed in each well (3 mL) of the diet tray that had been previously filled with 1 mL of artificial diet to which 50 ug/cm^2 of the test compound (dissolved in 50 μL of 90:10 acetone-water mixture) had been applied (to each of eight wells) and then allowed to dry. Trays were covered with a clear self-adhesive cover, and held at 25° C., 14:10 light-dark for six days. Percent mortality was recorded for the larvae in each well; activity in the eight wells was then averaged. In Table 4, under both the BAW HTS and BAW 50 headings, an “A” means that the compound was tested and at least 50 percent mortality was observed whereas, “B” means that either (1) the compound was tested and less than 50 percent mortality was observed or (2) the compound was not tested.

[2] = test system: beet armyworm (BAW; Spodoptera exigua: Lepidoptera); assay: 128-well diet tray assay on beet armyworm (BAW 50); type: in vivo; details: 144 h, percent mortality, 128-well diet assay, 50 ug/cm^2 of test compound on diet, second instar BAW larvae, six days, 25° C., average of eight wells, read-out: BAW 50
Description: as §1

CCO[C@@H]1[C@@H](OC)[C@H](C)O[C@@H](O/N=C/c2ccc(C#Cc3ccc(OC(F)(F)F)cc3)cc2)[C@@H]1OC [Compound 13, 4-(4-trifluoromethoxyphenylethynyl)-benzaldehyde O-((2S,3R,4R,5S,6S)-4-ethoxy-3,5-dimethoxy-6-methyl-tetrahydropyran-2-yl)-oxime]
pest or weed control at 12 µg/well, 12 µg/well [1]: > 50%
pest or weed control at 50 µg/cm2, 50 µg/cm2 [2]: > 50%
